{"source": "patent US20250345316A1", "about": "“METHODS OF INCREASING LYMPHOCYTE TRAFFICKING TO THE COLON BY STIMULATING RETINOIC ACID RECEPTORS AND ARYL HYDROCARBON RECEPTORS” (President and Fellows of Harvard College, priority 2024, published 2025)", "key": {"[1]": {"test_system": "OT-1 cells (antigen-specific CD8+ T cells)", "assay": "OT-1 in vivo assay (parenteral immunization): OT-1 cells in tissues by flow cytometry", "set-up": "species or system mice", "details": "for OT-1 effector cells in the colon and cecum: B6 mice, OVA+CpG s.c. day 0, Am80 500 nmol, 10-CL-BBQ 164 nmol s.c. day 0, 1, 2; for OT-1 effector cells in the colon and cecum / OT-1 cells in the small intestine: day 7; for OT-1 cells in the small intestine: same regimen; for CD8+ T cell trafficking to the small intestine / tissue residence: supplementation", "method": "OT-1 in vivo Assay (Parenteral Immunization): Mice were adoptively transferred with OT-1 cells, and subsequently immunized with […] chicken ovalbumin (OVA) and an adjuvant CpG-1668 (0.5 nmol). On day 0.1 and 2, mice were injected s.c. with solvent control (DMSO, 10% v/v in PEG-400), retinoic acid receptor agonist Am80 (500 nmol in PEG-400), AHR agonist 10-CL-BBQ (164 nmol in PEG-400), or Am80+10-CL-BBQ (same dose). At timepoints defined by individual experiments, tissues were harvested and analyzed.\nPreparing intestinal samples for flow cytometry: Small intestine (duodenum to ileum) was dissected out and flushed. Peyer's patches and fat were removed, and the tissue was cut into 4-5 pieces, and flipped to expose the luminal surface. Colon and cecum were dissected out, flushed and cut open longitudinally.\n(§1) Cell Count and Flow Cytometry and Cell Count: For cell counting, samples were diluted and counted on a BD Accuri C6 Plus cytometer. For flow cytometry, samples were run on a Beckman CytoFLEX cytometer, and analysis was done using Flow Jo software V10.\nThe experimental approach is shown in the schematic in FIG. 2. Antigen-specific CD8+ T cells (OT-1 cells, recognizing a peptide within the chicken ovalbumin protein) were adoptively transferred (1×10^5 cells) to B6 recipient mice on day −1, and B6 recipients were vaccinated subcutaneously (s.c.) on day 0 with 100 μg chicken ovalbumin (OVA) and an adjuvant CpG-1668 (0.5 nmol). On day 0.1 and 2, mice were injected subcutaneously with solvent control (DMSO, 10% v/v in PEG-400), retinoic acid receptor agonist Am80 (500 nmol in PEG-400), AHR agonist 10-CL-BBQ (164 nmol in PEG-400), or Am80+10-CL-BBQ (same dose). Tissues were harvest on day 7 and analyzed by flow cytometry."}, "[2]": {"test_system": "α4β7, GPR15 and CCR9 on OT-1 cells", "assay": "OT-1 in vivo assay: expression of gut homing molecules on OT-1 cells in blood and draining lymph nodes", "set-up": "species or system mice", "details": "for GPR15 on OT-1 cells (effector CD8+ T cells): day 4 blood, L-KYN 500 nmol in PEG-400; for α4β7 and CCR9 expression: subcutaneous vaccination model, supplementation", "method": "At timepoints defined by individual experiments, tissues were harvested and analyzed.\nas §1\nThe experimental approach is shown in the schematic in FIG. 2. […] Tissues were harvest on day 7 and analyzed by flow cytometry."}, "OT-1 cells": {"test_system": "OT-1 cells", "assay": "Short-term competitive homing of OT-1 cells", "format": "in vivo, mice", "details": "5×10^6 cells from each treatment transferred into naïve B6 recipients; without Am80", "method": "Short-term Competitive Homing: OT-1 cells, either in vitro or in vivo generated, were distinguished by congenic markers CD45.1/CD45.2, mixed at around 1:1 ratio and adoptively transferred into recipient animals. At 20-24 hours post transfer, mice were sacrificed, and tissues were harvested for analysis. Ratio of transferred cells were obtained, and homing index was calculated.\nBriefly, two GFP+OT-1 transgenic mice with or without expression of the congenic marker CD45.1 were used per experiment (mouse A and mouse B), and OT-1 cells were isolated from their spleens. OT-1 cells from different mice ([A] and [B]) were subjected to different treatments (A and B, including culture, genetic manipulation, in vivo activation and re-harvesting, etc). The cells were then mixed at an around 1:1 ratio and injected into a B6 recipient (GFP−). At timepoints (determined for each experiment), with or without additional in vivo treatments (determined by each experiment), tissues were analyzed by flow cytometry and the ratio of [A] and [B] in each tissue was obtained. Homing index and normalized homing index (see equation) were calculated.\nAs a supplementation to in vitro approaches, the gut homing capacity of in vivo generated effector T cells was tested in the disclosed vaccination strategy. […]"}, "AHR": {"test_system": "AHR", "assay": "CRISPR knockout of AHR in OT-1 cells, co-transfer with control cells", "format": "in vivo, mouse", "text": "CRISPR Knockout of AHR and GPR15: Naïve GFP+OT-1 cells were isolated with mouse CD8a+ T Cell Isolation Kit (Miltenyi) and nucleofected with Cas9 protein, complexed with either control (CD19) gRNA, or GPR15 gRNA. gRNAs were designed using Synthego online tool and synthesized by Synthego. The procedure was done using a Lonza nucleofector, with the P3 Primary cell Kit. Cells were distinguished based on expression of congenic marker CD45.1 and co-transferred into recipient mice. Recipient mice were immunized, and tissues were analyzed at different timepoints.\nLoss of AHR abrogated ligand-depended upregulation of GPR15. Naïve GFP+OT-1 cells were nucleofected with Cas9 protein, complexed with either control (CD19) gRNA, or AHR gRNA. Transfected cells were distinguished based on expression of congenic marker CD45.1 and co-transferred into recipient mice. Recipient mice were immunized with OVA+CpG, and injected with DMSO, Am80, 10-CL-BBQ or Am80+10-CL-BBQ (same dose and regimen as previously described). Flow cytometry plots, gated on OT-1 cells. […] Quantification is shown of GPR15+, α4β7+ and CCR9+ cells, percentage out of OT-1 cells in respective groups (FIGS. 21B-21D). […] Control cells used were CD45.1^− and […] cells were CD45.1+."}, "OT-1 CD8+ T cells": {"test_system": "OT-1 CD8+ T cells", "assay": "OT-1 in vitro culture to generate GPR15+CD8+ T cells", "format": "cell-based, mouse", "details": "day 4 post activation", "method": "OT-1 in vitro Culture: OT-1 splenocytes were pulsed for 1 hour with 1 μg OVA peptide (257-264) and cultured overnight in complete T cell (RPMI) media. The next day, CD8+ T cells were isolated using mouse CD8a+ T Cell Isolation Kit (Miltenyi) and cultured with various treatment conditions.\nVarious treatment conditions were tested for the efficiency of generating GPR15^+CD8^+ T cells. OT-1 splenocytes were pulsed for 1 hour with 1 μg OVA peptide (257-264) and cultured overnight in complete RPMI media. The next day, CD8^+ T cells were isolated using mouse CD8a^+ T Cell Isolation Kit (Miltenyi) and cultured with various treatment conditions. […] 4 days post activation. Plots were pre-gated on CD8a^+ cells. […] GPR15^+ T cells peaked around 4-5 days post activation. Cells were treated with IL-2+10-CL-BBQ+TGF-β1."}, "[3]": {"test_system": "OT-1 cells (antigen-specific CD8+ T cells)", "assay": "OT-1 in vivo assay (parenteral immunization): OT-1 cells in tissues by flow cytometry", "set-up": "species or system mice"}, "[4]": {"details": "10 nM ATRA added concurrently with IL-2+TGF-β1+10-CL-BBQ"}}, "data": [{"smiles": "Nc1ccccc1C(=O)C[C@H](N)C(=O)O", "note": "[L-KYN, L-kynurenine]", "values": [{"measurement": "colon trafficking (OT-1 cells out of total CD8+ T cells)", "setting": "[1]; alone", "value": "did not increase"}, {"measurement": "colon trafficking (OT-1 cells out of total CD8+ T cells)", "setting": "[1]; in combination with Am80", "value": "did not increase"}, {"measurement": "GPR15 on OT-1 cells (effector CD8+ T cells)", "setting": "[2]", "value": "did not increase"}]}, {"smiles": "O=c1c2cccc3cccc(c32)c2nc3ccc(Cl)cc3n12", "note": "[10-CL-BBQ, 10-Chloro-7H-benzimidazo[2,1-a]benzl[de]isoquinolin-7-one]", "values": [{"measurement": "trafficking of in vitro cultured cells to small and large intestine", "setting": "OT-1 cells", "value": "did not constitute trafficking"}, {"measurement": "OT-1 effector cells in the colon and cecum", "setting": "[1]", "value": "some increase"}, {"measurement": "OT-1 cells in the small intestine", "setting": "[1]", "value": "no effect"}, {"measurement": "GPR15 on OT-1 cells nucleofected with AHR gRNA", "setting": "AHR; day 5 blood, compared to control gRNA cells", "value": "not 10-CL-BBQ dependent upregulation"}, {"measurement": "representation of AHR KO cells in the colon and cecum (ratio [Ctrl] to [AHR knockout], normalized to spleen)", "setting": "AHR; day 7 post immunization", "value": "under-represented"}, {"measurement": "GPR15 expression on OT-1 cells in the blood", "setting": "[2]; blood, day 4-6", "value": "most robust"}, {"measurement": "GPR15 expression on CD8a+ cells of the recipient (mostly naïve)", "setting": "[2]; blood, day 5", "value": "did not affect"}, {"measurement": "GPR15 on adoptively transferred OT-1 cells (effector phase)", "setting": "[2]; blood, day 5", "value": "up-regulated"}, {"measurement": "GPR15 on OT-1 cells (effector CD8+ T cells)", "setting": "[2]", "value": "significantly up-regulated"}]}, {"smiles": "CC1=C(/C=C/C(C)=C/C=C/C(C)=C/C(=O)O)C(C)(C)CCC1", "note": "[ATRA, 3,7-Dimethyl-9-(2,6,6-trimethyl-1-cyclohexen-1-yl)-2E,4E,6E,8E,-nonatetraenoic acid]", "values": [{"measurement": "CD8+ T cell trafficking to the small intestine", "setting": "[1]; subcutaneous vaccination model", "value": "increased"}, {"measurement": "tissue residence", "setting": "[1]; subcutaneous vaccination model", "value": "promoted"}, {"measurement": "α4β7^high GPR15+ population", "setting": "OT-1 CD8+ T cells; 10 nM ATRA added 24-48 hours after IL-2+TGF-β1+10-CL-BBQ", "value": "enabled the generation of an α4β7^high GPR15+ population"}, {"measurement": "GPR15 expression", "setting": "OT-1 CD8+ T cells; [4]", "value": "completely abrogated"}, {"measurement": "trafficking phenotype (α4β7, CCR9)", "setting": "OT-1 CD8+ T cells; [4]", "value": "skewed cells towards a small intestine trafficking phenotype"}, {"measurement": "α4β7 and CCR9 expression", "setting": "[2]", "value": "increased"}]}, {"smiles": "FC(F)(F)c1ccc(Nc2nccc(-c3cccc(Cl)c3)n2)cc1", "note": "[VAF347]", "values": [{"measurement": "colon trafficking (OT-1 cells out of total CD8+ T cells)", "setting": "[3]; 250 nmol in PEG-400", "value": "increased colon trafficking but at a lower efficacy than 10-CL-BBQ"}]}, {"smiles": "CC1(C)CCC(C)(C)c2cc(NC(=O)c3ccc(C(=O)O)cc3)ccc21", "note": "[Am80, 4-[[(5,6,7,8-Tetrahydro-5,5,8,8-tetramethyl-2-naphthalenyl)amino]carbonyl]benzoic acid]", "values": [{"measurement": "OT-1 effector cells in the colon and cecum", "setting": "[1]", "value": "some increase"}, {"measurement": "OT-1 cells in the small intestine", "setting": "[1]", "value": "increased"}, {"measurement": "optimal trafficking to the large intestine", "setting": "[1]; subcutaneous vaccination model", "value": "not sufficient"}, {"measurement": "CD8+ T cell trafficking to the small intestine", "setting": "[1]; subcutaneous vaccination model", "value": "increased"}, {"measurement": "tissue residence", "setting": "[1]; subcutaneous vaccination model", "value": "promoted"}, {"measurement": "α4β7 and CCR9 expression", "setting": "[2]", "value": "increased"}]}, {"smiles": "Cc1ccccc1N=Nc1ccc(NC(=O)c2ccnn2C)c(C)c1", "note": "[CH-223191]", "values": [{"measurement": "effects of 10-CL-BBQ on colon trafficking", "setting": "[3]; 250 nmol in PEG-400, given with 10-CL-BBQ", "value": "antagonized"}]}]}
